In patent US7160898B2, “Pharmacological treatment for sleep apnea” (Board of Trustees of The University of Illinois, priority 2002, dated 2007):

Tests used:
[1] = tested on: NREM and REM sleep; assay: Sleep/wake staging by EEG/EMG after GR38032F (Example 2); assay type: in vivo, rat (Sprague-Dawley); details: 1 mg/kg i.p.
Description: Physiological parameters (see below) from each animal were recorded on 2 occasions in random order, with recordings for an individual animal separated for at least 3 days. Fifteen minutes prior to each recording each animal received a systemic injection (1 ml/kg intraperitoneal bolus injection) of either saline (control) or 1 mg/kg of ondansetron (GR38032F; 1,2,3,9-tetrahydro-9-methyl-3-[(2-methylimidazol-1-yl)methyl]carbazole-4-one, hydrochloride, dihydrate; Glaxo Wellcome, Inc., Research Triangle Park, N.C.). Polygraphic recordings were made from hours 10:00–16:00.
Respiration was recorded by placing each animal, unrestrained, inside a single chamber plethysmograph (PLYUNIR/U; Buxco Electronics, Sharon, Conn.; dimension 6 in.×10 in.×6 in.) ventilated with a bias flow of fresh room air at a rate of 2 L/min. A cable plugged onto the animal's connector and passed through a sealed port was used to carry the bioelectrical activity from the head implant.
Sleep and waking states were assessed using the biparietal EEG and nuchal EMG signals on 10-second epochs as described by Bennington et al. [Sleep, 17:28–36 (1994)]. […] Sleep efficiency was measured as the percentage of total recorded epochs staged as NREM or REM sleep.

[2] = tested on: sleep/wake architecture; assay: Sleep/wake architecture after 5-HT and GR38032F (Example 3); assay type: in vivo, rat (Sprague-Dawley); details: i.p.
Description: Sleep and waking states were assessed using the biparietal EEG and nuchal EMG signals on 10-second epochs as described by Bennington et al. [Sleep, 17:28–36 (1994)]. This software discriminated wakefulness (W) as a high frequency low amplitude EEG with a concomitant high EMG tone, NREM sleep by increased spindle and […] activity together with decreased EMG tone, and REM sleep by a […] activity and an absence of EMG tone. Sleep efficiency was measured as the percentage of total recorded epochs staged as NREM or REM sleep.
Each animal was recorded on four occasions, with recordings for an individual animal separated by at least three days. Fifteen minutes prior to each recording, each animal received (via intraperitoneal injection), in random order, one of the following: (a) saline solution (control); (b) 0.79 mg/kg serotonin; (c) 0.1 mg/kg GR38032F plus 0.79 mg/kg serotonin; or (d) 0.1 mg/kg GR38032F. For the GR38032F+serotonin test group, 0.1 mg/kg GR38032F was administered at time 09:30 followed by 0.79 mg/kg serotonin at time 09:45. Polygraphic recordings were made from 10:00–16:00.
Respiration BP, EEG, and EMG data were determined and recorded via the experimental procedure as specifically set forth above in Example 2. As in Example 2, sleep apneas, defined as cessation of respiratory effort for at least 2.5 s, were scored for each recording session and were associated with the stage in which they occurred: NREM or REM sleep. The duration requirement of 2.5 s represents at least two “missed” breaths, which is analogous to a 10-s apnea duration requirement in humans.
The effects of sleep stage (NREM vs REM) and injection (control vs. administration of either serotonin alone, GR38032F+serotonin, or GR38032F alone) on apnea indexes, respiratory pattern, BP, and HP were tested using analysis of variance (ANOVA) with repeated measures. Multiple comparisons were controlled using Fisher's protected least-significance difference (PLSD). One-way ANOVA was also performed by nonparametric (Kruskal-Wallis) analysis. Conclusions using parametric and nonparametric ANOVA were identical in all cases.

[3] = tested on: rat model of spontaneous sleep apnea; assay: Spontaneous sleep apnea in freely moving rats after GR38032F (Example 2); assay type: in vivo, rat (Sprague-Dawley); details: 1 mg/kg i.p.
Description: Adult, male Sprague-Dawley rats (Sasco-King, Wilmington, Mass.; usually 8 per test group; 300 g) were maintained on a 12-hour light (08:00–20:00 hour)/12-hour dark (20:00–08:00 hour) cycle for one week, housed in individual cages and given ad libitum access to food and water. Following the one week of acclimatization, animals were subjected to the following surgical procedures.
Acclimatized animals were anesthetized for the implantation of cortical electrodes for electroencephalogram (EEG) recording and neck muscle electrodes for electromyogram (EMG) recording using a mixture of ketamine (Vedco, Inc., St. Joseph, Mo.; 100 mg/ml) and acetylpromazine (Vedco, Inc., St. Joseph, Mo.; 10 mg/ml; 4:1, volume/volume) at a volume of 1 ml/kg body weight. The surface of the skull was exposed surgically and cleaned with a 20% solution of hydrogen peroxide followed by a solution of 95% isopropyl alcohol. Next, a dental preparation of sodium fluoride (Flura-GEL®, Saslow Dental, Mt. Prospect, Ill.) was applied to harden the skull above the parietal cortex and allowed to remain in place for 5 minutes. The fluoride mixture was then removed from the skull above the parietal cortex. The EEG electrodes consisting of four stainless steel machine screws, having leads attached thereto, were threaded into the skull to rest on the dura over the parietal cortex. A thin layer of Justi® resin cement (Saslow Dental, Mt. Prospect, Ill.) was applied to cover the screw heads (of screws implanted in the skull) and surrounding skull to further promote the adhesion of the implant. EMG electrodes consisting of two ball-shaped wires were inserted into the bilateral neck musculature. All leads (i.e., EEG and EMG leads) were soldered to a miniature connector (39F1401, Newark Electronics, Schaumburg, Ill.). Lastly, the entire assembly was fixed to the skull with dental cement.
After surgery, all animals were allowed to recover for one week before being subjected to another surgery that involved implantation of a radiotelemetry transmitter (TA11-PXT, Data Sciences International, St. Paul, Minn.) for monitoring blood pressure (BP) and heart period (HP), estimated as pulse interval. After the animals were anesthetized (as described above), the hair from the subxiphoid space to the pelvis was removed. The entire area was scrubbed with iodine and rinsed with alcohol and saline. A 4–6 cm midline abdominal incision was made to allow good visualization of the area from the bifurcation of the aorta to the renal arteries. A retractor was used to expose the contents of the abdomen and the intestine was held back using saline moistened gauze sponges. The aorta was dissected from the surrounding fat and connective tissues using sterile cotton applicators. A 3-0 silk suture was placed beneath the aorta and traction was applied to the suture to restrict the blood flow. Then the implant (TA11-PXT) was held by forceps while the aorta was punctured just cranial to the bifurcation using a 21-gauge needle bent at the beveled end. The tip of the catheter was inserted under the needle using the needle as a guide until the thin-walled BP sensor section was within the vessel. […]
Physiological parameters (see below) from each animal were recorded on 2 occasions in random order, with recordings for an individual animal separated for at least 3 days. […]

[4] = tested on: 5-hydroxytryptamine receptors; details: anesthetized animals; cited from earlier work
[5] = percent recording time, 6 hours, 5-HT 0.79 mg/kg, GR38032F 0.1 mg/kg, mean ± SE

SMILES: Cc1nccn1CC1CCc2c(c3ccccc3n2C)C1=O.Cl.O.O (stereo not drawn) [GR38032F, 1,2,3,9-tetrahydro-9-methyl-3-[(2-methylimidazol-1-yl)methyl]carbazole-4-one, hydrochloride, dihydrate]
- percentage of total recording time spent in REM sleep ([1]; 6 hours): did not significantly affect REM sleep
- percentage of total recording time spent in NREM sleep ([1]; first 2 hours, p<0.001): significant suppression of NREM sleep
- effect on sleep architecture ([2]; 6 hours of polygraphic recording): had no effect on sleep architecture
- % NREM [2, 5]: 63.4 ± 5.7%
- % REM [2, 5]: 7.3 ± 2.3%
- % Wakefulness [2, 5]: 28.8 ± 6.4%
- time for which REM sleep apneas were completely abolished following injection [3]: at least 4 hours
- rate of apneas per hour of REM sleep ([3]; 6 hour recording period, p=0.01 2-way ANOVA): significant suppressant effect
- rate of apneas per hour of NREM sleep ([3]; first 2 hours of recording, paired t-tests p<0.01): significant suppression of apneas
- spontaneous apneas in REM sleep ([3]; first 4 hours of recordings): no animal exhibited a single spontaneous apnea in REM sleep
- rate of apneas per hour of NREM sleep ([3]; whole 6 hours of recording, two-way ANOVA vs saline control): no significant effect of treatment or time over 6 hours
- antagonism of agonist-induced transient apnea [4]: significantly antagonized
